Measurements taken from publication PMC10641831 (Journal of Medicinal Chemistry, 2023).
Like-named read-outs stand apart in the source and are kept apart here. Numbered stars: 1 amine (or outer) side, 2 acyl side, 3 side chain; on linkers, the order of the positions; unused ones are H or OH. Bridge positions count the residues as written; N and C are the ends. Square brackets hold non-standard residues; d marks the D form. Peptide text beside a SMILES is read from it. Phe(4-(Z)-phenylazo) = N[C@@H](Cc1ccc(/N=N\c2ccccc2)cc1)C(=O)O; AMPB(E) = O=C(c1ccc(/N=N/c2ccc(CN[*:1])cc2)cc1)[*:2]; X1 = O=C([C@H](Cc1ccc(/N=N/c2ccccc2)cc1)N[*:1])[*:2]; X2 = O=C(c1ccc(/N=N\c2ccc(CN[*:1])cc2)cc1)[*:2]

Assays:
[1] = Photostationary state by analytical C18-RP-HPLC; assay type: physicochemical; conditions: for PSS (E → Z): irradiation with 340 nm, HEPES buffer; for PSS (Z → E): irradiation with 420 nm (8–17) or 528 nm (18, 19)
Method: All photoprobes were investigated regarding their photophysical properties in aqueous buffer (pH 7.5), mimicking the conditions of the biological functional assays.
1.3.2. Photostationary States
Photostationary states (PSS) were measured on analytical C18-RP-HPLC (flow: 0.3 mL/min, solvent A: H2O (0.05% TFA), solvent B: MeCN). To determine the PSS of the photoswitches, the samples (in 0.1 mM in HEPES buffer + 1% DMSO, pH 7.5) were irradiated first with 340 nm to get the Z-isomer. Afterwards, the sample was irradiated with 420 nm (8-17) or 528 nm (18 and 19), respectively, to get back to the E-isomer. The samples were measured at the isosbestic points.

[2] = Thermal half-life of the Z-isomer (UV/vis, 96-well plate); assay type: physicochemical; conditions: 25 °C; for t1/2 (thermal half-life, Figure S50): 50 µM in HEPES buffer + 0.25% DMSO, pre-irradiated with 340 nm; for t1/2 (thermal half-life Z to E): preirradiation with 340 nm, HEPES buffer pH 7.4
From the text: All photoprobes were investigated regarding their photophysical properties in aqueous buffer (pH 7.5), mimicking the conditions of the biological functional assays. […] Upon irradiation with 340 nm light for 10 s and monitoring via UV/vis spectroscopy, all compounds could be switched to the Z-isomer, reaching the photostationary state (PSS). Compounds 8–17 containing azobenzene could be switched back to the E-isomer by irradiation at 420 nm for 60 s. Compounds 18 and 19 containing arylazopyrazole could be reverted to the E isomer by using 528 nm light. […] The PSS, when switched to the Z-isomer, was consistently good, with a PSS of 81–95%. […] The thermal half-lives of 10 and 12 were also measured at 37 °C, representing the temperature during the biological assays. As expected, the thermal half-lives decreased, however, the ratio of E and Z isomers remained stable during the incubation period of the biological assays (1 h).
Starting materials and commercial reagents were purchased from Acros, Alfa Aesar, Fisher, Fluka, Fluorochem, Merck (Sigma-Aldrich), TCI and VWR and were used without further purification. Solvents were used in p.a. quality or dried according to common procedures if necessary. All reactions with oxygen- or moisture-sensitive reagents were carried out in glassware that was dried before use by heating under vacuum. Dry nitrogen or argon was used for an inert gas atmosphere. All NMR spectra were measured at room temperature (20 °C) using a Bruker Avance 400 (400 MHz for ^1H and 101 MHz for ^13C) or a Bruker Avance 600 (600 MHz for ^1H and 151 MHz for ^13C) NMR spectrometer. All chemical shifts are reported in δ-scale as parts per million [ppm] (multiplicity, coupling constant J, number of protons) relative to the solvent residual peaks. Coupling constants J are given in hertz [Hz]. Abbreviations used for signal multiplicity: ^1H NMR: s = singlet, d = doublet, dd = doublet of doublets, ddd = doublet of doublets of doublets, dt = doublet of triplets, t = triplet, td = triplet of doublets, q = quartet, and m = multiplet. All mass spectra were recorded on an Agilent Q-TOF 6540 UHD, Finnigan MAT SSQ 710 A, Jeol AccuTOF GCX or ThermoQuest Finnigan TSQ 7000 spectrometer. Absorption spectra were recorded on an UV/vis Agilent Cary 50 spectrometer. Thermal half-lives were measured on a 96-well plate in a Thermo Scientific Multiskan Spectrum. Analytical TLC was performed on silica gel-coated alumina plates (MN precoated TLC-sheets ALUGRAM Xtra SIL G/UV254). Visualization was done using UV light (254 or 366 nm) or staining with ninhydrin solution. Column chromatography was performed on a Biotage Isolera One automated flash purification system with a UV/vis detector. Analytical RP-HPLC was carried out on an Agilent 1220 Infinity LC System (column: P/No 00F-4251-B0, Phenomenex Luna 3 μm C18(2) 100 Å, LC column 150 mm × 2.0 mm). Purification by preparative HPLC was conducted on a preparative HPLC Agilent 1260 Infinity LC System [column: P/No 00G-4253-P0-AX, Phenomenex Luna 10 μm C18(2) 100 Å, LC column 250 mm × 21.2 mm]. The eluent systems were used as specified. After the purification process, solvents were removed by lyophilization. Switching experiments were done with a 340 nm LED (SSC VIOSYS CUD4AF1B, 500 mA, 55 mW), 420 nm LED (ILH-XC01-S410-SC211-WIR200, 800 mA, 440 mW), and 528 nm LED (OSRAM Oslon SSL 80 green, 500 mA, 34 mW). Purity of all photoprobes was >95% as determined by analytical RP-HPLC at 220 nm in DMSO.
1.3.4. Thermal Half-lives
Thermal half-lives were measured in a 96-well plate in a Thermo Scientific Multiskan® Spectrum at 25 °C (and at 37 °C for compounds 10 and 12). The solutions (50 µM in HEPES buffer + 0.25% DMSO) were pre-irradiated with 340 nm. The absorption at 335 nm was measured every 3 h. The data was analyzed using Origin 2021.
0,7 1/2 ExpDec1 Fit of Sheet1 B
Modell ExpDec1 0,35 Modell ExpDec1
0,6 Gleichung y = A 1 *e xp (-x/t1 ) + y0 Gleichung y = A 1 *e xp (-x/t1 ) + y0 […]

hOTR = molecular target: T1, hOTR (Homo sapiens, UniProt P30559); test: IP-One accumulation assay, agonist function, HEK293 cells expressing hOTR; assay type: cell-based; conditions: for Emax: HEK293, relative to the effect of OT, read-out: OTR Emax ± SEM; for OTR E/Z ratio EC50: ratio of EC50 of E- and Z-isomer
T1 construct: expressed in transfected cells
T1 sequence (P30559 1-389): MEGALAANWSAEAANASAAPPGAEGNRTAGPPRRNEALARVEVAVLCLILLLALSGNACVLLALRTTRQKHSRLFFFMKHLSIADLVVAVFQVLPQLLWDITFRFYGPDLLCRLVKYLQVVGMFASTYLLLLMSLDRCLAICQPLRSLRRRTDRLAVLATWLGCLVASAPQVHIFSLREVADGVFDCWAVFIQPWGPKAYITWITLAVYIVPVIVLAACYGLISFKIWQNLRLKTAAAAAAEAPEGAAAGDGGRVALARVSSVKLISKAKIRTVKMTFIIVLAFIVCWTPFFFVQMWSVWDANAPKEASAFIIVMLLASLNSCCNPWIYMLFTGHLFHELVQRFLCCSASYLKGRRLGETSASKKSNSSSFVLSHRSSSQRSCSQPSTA

[3] = IP-One, stable HEK293 hOTR, E = thermal equilibrium, Z = PSS after 340 nm, read-out: OTR EC50 ± SEM

Row | PSS (E → Z) [1] | t1/2 (thermal half-life, Figure S50) [2] | t1/2 (thermal half-life Z to E) [2] | Compound | Emax (hOTR) | EC50 (hOTR; [3]) | OTR E/Z ratio EC50 (hOTR) | also measured
1 | – | – | – | CC[C@H](C)[C@@H]1NC(=O)[C@H](Cc2ccc(O)cc2)NC(=O)[C@@H](N)CSSC[C@@H](C(=O)NCc2ccc(/N=N/c3ccc(C(=O)NCC(N)=O)cc3)cc2)NC(=O)[C@H](CC(N)=O)NC(=O)[C@H](CCC(N)=O)NC1=O [E-10] (H-CYIQNC[AMPB(E)]G-NH2; disulfide 1-6) | 80 ± 1% | 94.6 ± 19 nM | 3.1 | –
2 | – | – | – | CC[C@H](C)[C@@H]1NC(=O)[C@H](Cc2ccc(/N=N\c3ccccc3)cc2)NC(=O)[C@@H](N)CSSC[C@@H](C(=O)N2CCC[C@H]2C(=O)N[C@@H](CC(C)C)C(=O)NCC(N)=O)NC(=O)[C@H](CC(N)=O)NC(=O)[C@H](CCC(N)=O)NC1=O [Z-8] (H-C[Phe(4-(Z)-phenylazo)]IQNCPLG-NH2; disulfide 1-6) | 35 ± 1% | 3500 ± 1890 nM | 1.3 | –
3 | – | – | – | CC[C@H](C)[C@@H]1NC(=O)[C@H](Cc2ccc(/N=N/c3ccccc3)cc2)NC(=O)[C@@H](N)CSSC[C@@H](C(=O)N2CCC[C@H]2C(=O)N[C@@H](CC(C)C)C(=O)NCC(N)=O)NC(=O)[C@H](CC(N)=O)NC(=O)[C@H](CCC(N)=O)NC1=O [E-8] (H-C[X1]IQNCPLG-NH2; disulfide 1-6) | – | 4500 ± 1010 nM | 1.3 | OTR Emax ± SEM (hOTR; relative to the effect of OT): 45 ± 3%
4 | 93% | 3 days | 3.0 days | CC[C@H](C)[C@@H]1NC(=O)[C@H](Cc2ccc(O)cc2)NC(=O)[C@@H](N)CSSC[C@@H](C(=O)N[C@@H](Cc2ccc(/N=N/c3ccccc3)cc2)C(=O)N[C@@H](CC(C)C)C(=O)NCC(N)=O)NC(=O)[C@H](CC(N)=O)NC(=O)[C@H](CCC(N)=O)NC1=O [compound 9, [AzbS^7]-OT] (H-CYIQNC[X1]LG-NH2; disulfide 1-6) | – | – | – | potency difference between the E and Z isomers at OTR (hOTR; EC50 E vs Z): 2.5 fold; agonist character at OTR (hOTR; IP-One assay): full agonist; EC50 (hOTR; supplementary CSV, read-out: activity E-isomer OTR): 346 ± 30 nM; EC50 (hOTR; supplementary CSV, read-out: activity Z-isomer OTR): 136 ± 6 nM
5 | 94% | 6.6 days | 6.6 days | [AzpC(o)^1,Dap^6]-VP [compound 18] | – | – | – | PSS (Z → E) [1]: 82%
6 | – | – | – | CC[C@H](C)[C@@H]1NC(=O)[C@H](Cc2ccc(O)cc2)NC(=O)[C@@H](N)CSSC[C@@H](C(=O)NCc2ccc(/N=N\c3ccc(C(=O)NCC(N)=O)cc3)cc2)NC(=O)[C@H](CC(N)=O)NC(=O)[C@H](CCC(N)=O)NC1=O [Z-10] (H-CYIQNC[X2]G-NH2; disulfide 1-6) | 92% | 30.7 ± 4 nM | 3.1 | decrease in potency compared to OT at OTR (hOTR; EC50 vs OT): 12 fold

Row | Compound | PSS (E → Z) [1] | t1/2 (thermal half-life, Figure S50) [2] | t1/2 (thermal half-life Z to E) [2] | Emax (hOTR) | EC50 (hOTR; [3]) | OTR E/Z ratio EC50 (hOTR) | also measured
7 | [AzbC(m,m)^1,Dap^6]-VP [compound 17] | 93% | 28.6 days | 28.6 days | – | – | – | PSS (Z → E) [1]: 88%
